Counter-ions that a name gives are not always drawn. Marks after values point to notes of the source that are not given here.
Legend:
rabbit cortex = experiment: Quantitative EEG, rabbit cortex, intravenous administration; format: in vivo, rabbits; conditions: for group percent change in electrical energy from pre-drug control, Δ band / mean change ± S.E. in electrical energy from pre-drug control, Δ band: Δ = 0.5-3.5 Hz; for group percent change in electrical energy from pre-drug control, α band / mean change ± S.E. in electrical energy from pre-drug control, α band: α= 7-13 Hz; for group percent change in electrical energy from pre-drug control, β band / mean change ± S.E. in electrical energy from pre-drug control, β band: β= 13-25 Hz; for group percent change in electrical energy from pre-drug control, γ band / mean change ± S.E. in electrical energy from pre-drug control, γ band: γ= 25-40 Hz; for group percent change in electrical energy from pre-drug control, θ band / mean change ± S.E. in electrical energy from pre-drug control, θ band: θ= 3.5-7.0 Hz
Experimental: At least 2 weeks were allowed for recovery before beginning experimentation.
Groups of four animals each were individually restrained and connected to an EEG amplifier and frequency analyzer. The EEG of each animal was recorded on a separate channel. The instrumentation filtered each channel of EEG analog data into five distinct frequency bands: Δ=0.5-3.5 Hz, ϑ=3.5-7.0 Hz, α=7-13 Hz, β=13-25 Hz and γ=25-40 Hz. The EEG analyzer then integrated the filtered waveforms and sent pulses to an associated computer at a rate proportional to the electrical energy of each band. Thus, one computer print-out provided a cortical EEG profile for the entire group of four rabbits.
Data from a one-hour recording period were collected in four 15-minute periods, which provided additional information concerning both onset and time of peak effect of drug activity. However, in this report only the mean activity of the four data collection periods was considered since onset of drug activity was immediate and duration of action was at least one hour for all drugs studied. Drug-induced EEG changes were determined by comparing the post-treatment print-out to the pretreatment control in the same animal and statistical analysis was performed on change from control, in counts, using multiple Student-t paired-comparison tests with p≦0.05 (Table 1). However, for clarity data are also presented as percent change from control (Figures 1 and 2).
All drugs were administered intravenously in saline solution as their respective salts and all dosage calculations were based on the free base. Recording was started immediately after injection and animals were not used more often than once per week. Initial doses were reduced geometrically until a no-effect dose was determined for each drug. However, only the "no-effect" data and the data generated from the next higher dose are presented in this report since the shape of the EEG profile is not dose-related, as opposed to the magnitude of the response which is dose-related.

[1] = test system: fronto-occipital cortex of the cat; experiment: Quantitative EEG, fronto-occipital cat cortex, subcutaneous administration; format: in vivo, cats; conditions: for group percent change in electrical energy from pre-drug control, Δ band / mean change ± S.E. in electrical energy from pre-drug control, Δ band / group percent change in electrical energy from pre-drug control, α band / mean change ± S.E. in electrical energy from pre-drug control, α band / group percent change in electrical energy from pre-drug control, β band / mean change ± S.E. in electrical energy from pre-drug control, β band / group percent change in electrical energy from pre-drug control, γ band / mean change ± S.E. in electrical energy from pre-drug control, γ band / group percent change in electrical energy from pre-drug control, θ band / mean change ± S.E. in electrical energy from pre-drug control, θ band: fronto-occipital cat cortex; for group percent change in electrical energy from pre-drug control, Δ band / mean change ± S.E. in electrical energy from pre-drug control, Δ band: Δ = 0.5-3.5 Hz; for group percent change in electrical energy from pre-drug control, α band / mean change ± S.E. in electrical energy from pre-drug control, α band: α= 7-13 Hz; for group percent change in electrical energy from pre-drug control, β band / mean change ± S.E. in electrical energy from pre-drug control, β band: β= 13-25 Hz; for group percent change in electrical energy from pre-drug control, γ band / mean change ± S.E. in electrical energy from pre-drug control, γ band: γ= 25-40 Hz; for group percent change in electrical energy from pre-drug control, θ band / mean change ± S.E. in electrical energy from pre-drug control, θ band: θ= 3.5-7.0 Hz
From the text: This unique combination of activity may render buspirone useful in the treatment of childhood hyperkinesis which has been reported to respond to both selected phenothiazine and stimulant drugs. • (b) Adult mongrel female cats weighing 2.5-4.0 kg were implanted with EEG recording electrodes. Recording sites were as follows: fronto-occipital cortex, basal amygdala and ventral hippocampus.
Animals were individually held in canvas feline restraining bags for EEG recording. The EEG of each brain area was recorded on a separate channel. The instrumentation filtered each channel of EEG and analog data into five distinct frequency bands: Δ=0.5-3.5 Hz, ϑ=3.5-7.0 Hz, α=7-13 Hz, β=13-25 Hz and γ=25-40 Hz. The EEG analyzer then integrated the filtered waveforms and sent pulses to an associated computer at a rate proportional to the electrical energy of each band. Data collecting procedures were essentially the same as reported in Example 1. However, groups of six animals each were used and all drugs were administered subcutaneously in saline solution as their respective salts, but all dosages were calculated as the free base. Recording was started 30 minutes after injection to insure adequate drug absorption for peak activity.
Drug-induced EEG changes were determined by comparing the post-treatment data to the pre-treatment control in the same animal. Statistical analysis was performed on change from control, in instrument counts, using multiple Student-t-paired-comparison test with P≦0.05 (Table 2). However, for clarity data are also presented as percent change from control (Figures 3, 4 and 5).
The data in Table 2 are drug-induced changes resulting from the minimum and higher doses of each compound required to elicit the EEG profile characteristic of that particular drug.

[2] = rabbit cortex, 0.125 mg/kg free base i.v.
[3] = rabbit cortex, 0.25 mg/kg free base i.v.

CSc1ccc2c(c1)N(CCC1CCCCN1C)c1ccccc1S2 (centres unmarked) [Thioridazine HCl, thioridazine]
minimal effective dose (rabbit cortex; Oryctolagus cuniculus, iv, rabbit cortex EEG, dose of free base, read-out: the minimum dose required to produce the EEG profile characteristic of that particular drug): 0.25 mg/kg
relative potency by comparing minimal doses required to elicit EEG profiles (rabbit cortex; rabbit cortex EEG, i.v.): approximately twice as potent as buspirone
the no-effect dose (rabbit cortex; rabbit cortex EEG, dose of free base): 0.125† mg/kg, i.v.
EEG profile (rabbit cortex; rabbit cortex, i.v.): completely different from that produced by stimulant drugs
group percent change in electrical energy from pre-drug control, Δ band (rabbit cortex; [2]): +3%
mean change ± S.E. in electrical energy from pre-drug control, Δ band (rabbit cortex; [2]): +11 ± 23 instrument counts
group percent change in electrical energy from pre-drug control, Δ band (rabbit cortex; [3]): +69%
mean change ± S.E. in electrical energy from pre-drug control, Δ band (rabbit cortex; [3]): +143 ± 11 instrument counts
group percent change in electrical energy from pre-drug control, α band (rabbit cortex; [2]): 0%
mean change ± S.E. in electrical energy from pre-drug control, α band (rabbit cortex; [2]): 0 ± 6 instrument counts
group percent change in electrical energy from pre-drug control, α band (rabbit cortex; [3]): +34%
mean change ± S.E. in electrical energy from pre-drug control, α band (rabbit cortex; [3]): +54 ± 2 instrument counts
group percent change in electrical energy from pre-drug control, β band (rabbit cortex; [2]): +3%
mean change ± S.E. in electrical energy from pre-drug control, β band (rabbit cortex; [2]): +5 ± 4 instrument counts
group percent change in electrical energy from pre-drug control, β band (rabbit cortex; [3]): +35%
mean change ± S.E. in electrical energy from pre-drug control, β band (rabbit cortex; [3]): +39 ± 4 instrument counts
group percent change in electrical energy from pre-drug control, γ band (rabbit cortex; [2]): +1%
mean change ± S.E. in electrical energy from pre-drug control, γ band (rabbit cortex; [2]): +1 ± 1 instrument counts
group percent change in electrical energy from pre-drug control, γ band (rabbit cortex; [3]): +5%
mean change ± S.E. in electrical energy from pre-drug control, γ band (rabbit cortex; [3]): +5 ± 1 instrument counts
group percent change in electrical energy from pre-drug control, θ band (rabbit cortex; [2]): -5%
mean change ± S.E. in electrical energy from pre-drug control, θ band (rabbit cortex; [2]): -13 ± 8 instrument counts
group percent change in electrical energy from pre-drug control, θ band (rabbit cortex; [3]): +21%
mean change ± S.E. in electrical energy from pre-drug control, θ band (rabbit cortex; [3]): +43 ± 4 instrument counts
minimal effective dose ([1]; Felis catus, sc, fronto-occipital cat cortex EEG, dose of free base, read-out: the minimum dose required to produce the EEG profile characteristic of that particular drug): 1 mg/kg
the no-effect dose ([1]; fronto-occipital cat cortex EEG, dose of free base): 0.5† mg/kg, s.c.
group percent change in electrical energy from pre-drug control, Δ band ([1]; 0.5 mg/kg free base s.c.): +5%
mean change ± S.E. in electrical energy from pre-drug control, Δ band ([1]; 0.5 mg/kg free base s.c.): +11 ± 21 instrument counts
group percent change in electrical energy from pre-drug control, Δ band ([1]; 1.0 mg/kg free base s.c.): +19%
mean change ± S.E. in electrical energy from pre-drug control, Δ band ([1]; 1.0 mg/kg free base s.c.): +38 ± 11 instrument counts
group percent change in electrical energy from pre-drug control, Δ band ([1]; 8.0 mg/kg free base s.c.): +28%
mean change ± S.E. in electrical energy from pre-drug control, Δ band ([1]; 8.0 mg/kg free base s.c.): +54 ± 8 instrument counts
group percent change in electrical energy from pre-drug control, α band ([1]; 0.5 mg/kg free base s.c.): 0%
mean change ± S.E. in electrical energy from pre-drug control, α band ([1]; 0.5 mg/kg free base s.c.): 0 ± 7 instrument counts
group percent change in electrical energy from pre-drug control, α band ([1]; 1.0 mg/kg free base s.c.): +18%
mean change ± S.E. in electrical energy from pre-drug control, α band ([1]; 1.0 mg/kg free base s.c.): +20 ± 5 instrument counts
group percent change in electrical energy from pre-drug control, α band ([1]; 8.0 mg/kg free base s.c.): +26%
mean change ± S.E. in electrical energy from pre-drug control, α band ([1]; 8.0 mg/kg free base s.c.): +25 ± 6 instrument counts
group percent change in electrical energy from pre-drug control, β band ([1]; 0.5 mg/kg free base s.c.): -3%
mean change ± S.E. in electrical energy from pre-drug control, β band ([1]; 0.5 mg/kg free base s.c.): -3 ± 3 instrument counts
group percent change in electrical energy from pre-drug control, β band ([1]; 1.0 mg/kg free base s.c.): +3%
mean change ± S.E. in electrical energy from pre-drug control, β band ([1]; 1.0 mg/kg free base s.c.): +3 ± 4 instrument counts
group percent change in electrical energy from pre-drug control, β band ([1]; 8.0 mg/kg free base s.c.): -2%
mean change ± S.E. in electrical energy from pre-drug control, β band ([1]; 8.0 mg/kg free base s.c.): -3 ± 4 instrument counts
group percent change in electrical energy from pre-drug control, γ band ([1]; 0.5 mg/kg free base s.c.): -5%
mean change ± S.E. in electrical energy from pre-drug control, γ band ([1]; 0.5 mg/kg free base s.c.): -3 ± 3 instrument counts
group percent change in electrical energy from pre-drug control, γ band ([1]; 1.0 mg/kg free base s.c.): -11%
mean change ± S.E. in electrical energy from pre-drug control, γ band ([1]; 1.0 mg/kg free base s.c.): -9 ± 4 instrument counts
group percent change in electrical energy from pre-drug control, γ band ([1]; 8.0 mg/kg free base s.c.): -15%
mean change ± S.E. in electrical energy from pre-drug control, γ band ([1]; 8.0 mg/kg free base s.c.): -12 ± 3 instrument counts
group percent change in electrical energy from pre-drug control, θ band ([1]; 0.5 mg/kg free base s.c.): -1%
mean change ± S.E. in electrical energy from pre-drug control, θ band ([1]; 0.5 mg/kg free base s.c.): -2 ± 8 instrument counts
group percent change in electrical energy from pre-drug control, θ band ([1]; 1.0 mg/kg free base s.c.): +24%
mean change ± S.E. in electrical energy from pre-drug control, θ band ([1]; 1.0 mg/kg free base s.c.): +29 ± 5 instrument counts
group percent change in electrical energy from pre-drug control, θ band ([1]; 8.0 mg/kg free base s.c.): +30%
mean change ± S.E. in electrical energy from pre-drug control, θ band ([1]; 8.0 mg/kg free base s.c.): +40 ± 6 instrument counts

— patent publication EP0497314A1, “Use of azapirones in attention deficit hyperactivity disorder” (Bristol-Myers Squibb Company, priority 1991, dated 1992)
